Laboratory results from the NIST ThermoML archive (doi:10.1016/j.jct.2009.10.007).
Numbers after ± are expanded uncertainties.

Assay: mn = molality of the nth substance listed, in mol/kg
Details: 101 kPa, Liquid; for speed of sound: Sing-around technique in a fixed-path interferometer; for mass density: Vibrating tube method

CCCCn1cc[n+](C)c1.[Br-] [1-butyl-3-methylimidazolium bromide] + O
speed of sound (288.15 K, m1 = 0.0183): 1468.7 ± 0.75 m/s | speed of sound (288.15 K, m1 = 0.0274): 1469.8 ± 0.75 m/s | speed of sound (288.15 K, m1 = 0.0367): 1471 ± 0.75 m/s | speed of sound (288.15 K, m1 = 0.0459): 1472 ± 0.75 m/s | speed of sound (288.15 K, m1 = 0.0692): 1474.8 ± 0.76 m/s | speed of sound (288.15 K, m1 = 0.0932): 1477.3 ± 0.76 m/s | speed of sound (288.15 K, m1 = 0.1164): 1480 ± 0.76 m/s | speed of sound (288.15 K, m1 = 0.141): 1483 ± 0.76 m/s | speed of sound (288.15 K, m1 = 0.1652): 1485.6 ± 0.77 m/s | speed of sound (288.15 K, m1 = 0.1863): 1488 ± 0.77 m/s | speed of sound (288.15 K, m1 = 0.2114): 1490.8 ± 0.77 m/s | speed of sound (288.15 K, m1 = 0.2376): 1493.6 ± 0.77 m/s | speed of sound (288.15 K, m1 = 0.2632): 1496.4 ± 0.78 m/s | speed of sound (288.15 K, m1 = 0.2831): 1498.5 ± 0.78 m/s | mass density (288.15 K, m1 = 0.0183): 1000.03 ± 0.061 kg/m3 | mass density (288.15 K, m1 = 0.0274): 1000.49 ± 0.061 kg/m3 | mass density (288.15 K, m1 = 0.0367): 1000.96 ± 0.061 kg/m3 | mass density (288.15 K, m1 = 0.0459): 1001.42 ± 0.061 kg/m3 | mass density (288.15 K, m1 = 0.0692): 1002.59 ± 0.061 kg/m3 | mass density (288.15 K, m1 = 0.0932): 1003.78 ± 0.062 kg/m3 | mass density (288.15 K, m1 = 0.1164): 1004.92 ± 0.062 kg/m3 | mass density (288.15 K, m1 = 0.141): 1006.13 ± 0.062 kg/m3 | mass density (288.15 K, m1 = 0.1652): 1007.3 ± 0.063 kg/m3 | mass density (288.15 K, m1 = 0.1863): 1008.32 ± 0.063 kg/m3 | mass density (288.15 K, m1 = 0.2114): 1009.53 ± 0.064 kg/m3 | mass density (288.15 K, m1 = 0.2376): 1010.77 ± 0.065 kg/m3 | mass density (288.15 K, m1 = 0.2632): 1011.99 ± 0.065 kg/m3 | mass density (288.15 K, m1 = 0.2831): 1012.92 ± 0.065 kg/m3 | speed of sound (293.15 K, m1 = 0.0183): 1484.7 ± 0.75 m/s | speed of sound (293.15 K, m1 = 0.0274): 1485.7 ± 0.76 m/s | speed of sound (293.15 K, m1 = 0.0367): 1486.7 ± 0.76 m/s | speed of sound (293.15 K, m1 = 0.0459): 1487.7 ± 0.76 m/s | speed of sound (293.15 K, m1 = 0.0692): 1490.2 ± 0.76 m/s | speed of sound (293.15 K, m1 = 0.0932): 1492.5 ± 0.76 m/s | speed of sound (293.15 K, m1 = 0.1164): 1495 ± 0.76 m/s | speed of sound (293.15 K, m1 = 0.141): 1497.6 ± 0.77 m/s | speed of sound (293.15 K, m1 = 0.1652): 1500.1 ± 0.77 m/s | speed of sound (293.15 K, m1 = 0.1863): 1502.2 ± 0.77 m/s | speed of sound (293.15 K, m1 = 0.2114): 1504.8 ± 0.77 m/s | speed of sound (293.15 K, m1 = 0.2376): 1507.3 ± 0.78 m/s | speed of sound (293.15 K, m1 = 0.2632): 1509.8 ± 0.78 m/s | speed of sound (293.15 K, m1 = 0.2831): 1511.8 ± 0.78 m/s | mass density (293.15 K, m1 = 0.0183): 999.121 ± 0.06 kg/m3 | mass density (293.15 K, m1 = 0.0274): 999.575 ± 0.061 kg/m3 | mass density (293.15 K, m1 = 0.0367): 1000.04 ± 0.06 kg/m3 | mass density (293.15 K, m1 = 0.0459): 1000.49 ± 0.062 kg/m3 | mass density (293.15 K, m1 = 0.0692): 1001.64 ± 0.061 kg/m3 | mass density (293.15 K, m1 = 0.0932): 1002.82 ± 0.061 kg/m3 | mass density (293.15 K, m1 = 0.1164): 1003.94 ± 0.061 kg/m3 | mass density (293.15 K, m1 = 0.141): 1005.13 ± 0.062 kg/m3 | mass density (293.15 K, m1 = 0.1652): 1006.29 ± 0.062 kg/m3 | mass density (293.15 K, m1 = 0.1863): 1007.29 ± 0.063 kg/m3 | mass density (293.15 K, m1 = 0.2114): 1008.48 ± 0.063 kg/m3 | mass density (293.15 K, m1 = 0.2376): 1009.71 ± 0.064 kg/m3 | mass density (293.15 K, m1 = 0.2632): 1010.91 ± 0.064 kg/m3 | mass density (293.15 K, m1 = 0.2831): 1011.83 ± 0.062 kg/m3 | speed of sound (298.15 K, m1 = 0.0183): 1498.8 ± 0.76 m/s | speed of sound (298.15 K, m1 = 0.0274): 1499.6 ± 0.76 m/s | speed of sound (298.15 K, m1 = 0.0367): 1500.5 ± 0.76 m/s | speed of sound (298.15 K, m1 = 0.0459): 1501.5 ± 0.76 m/s | speed of sound (298.15 K, m1 = 0.0692): 1503.7 ± 0.76 m/s | speed of sound (298.15 K, m1 = 0.0932): 1505.9 ± 0.76 m/s | speed of sound (298.15 K, m1 = 0.1164): 1508.1 ± 0.77 m/s | speed of sound (298.15 K, m1 = 0.141): 1510.5 ± 0.77 m/s | speed of sound (298.15 K, m1 = 0.1652): 1512.7 ± 0.77 m/s | speed of sound (298.15 K, m1 = 0.1863): 1514.7 ± 0.77 m/s | speed of sound (298.15 K, m1 = 0.2114): 1517 ± 0.78 m/s | speed of sound (298.15 K, m1 = 0.2376): 1519.3 ± 0.78 m/s | speed of sound (298.15 K, m1 = 0.2632): 1521.7 ± 0.78 m/s | speed of sound (298.15 K, m1 = 0.2831): 1523.4 ± 0.78 m/s | mass density (298.15 K, m1 = 0.0183): 997.948 ± 0.06 kg/m3 | mass density (298.15 K, m1 = 0.0274): 998.397 ± 0.061 kg/m3 | mass density (298.15 K, m1 = 0.0367): 998.851 ± 0.061 kg/m3 | mass density (298.15 K, m1 = 0.0459): 999.303 ± 0.061 kg/m3 | mass density (298.15 K, m1 = 0.0692): 1000.44 ± 0.06 kg/m3 | mass density (298.15 K, m1 = 0.0932): 1001.6 ± 0.061 kg/m3 | mass density (298.15 K, m1 = 0.1164): 1002.71 ± 0.061 kg/m3
